Two molecules from US4204039A, “Process for producing deoxynarasin antibiotics” (Eli Lilly and Company, priority 1978, dated 1980) can be followed below.

One series can be described thus: solubility. Type of series: physicochemical.
A further series in a line: stability in alcohols. Type of series: physicochemical. The settings on record: free acid; e.g. methanol, room temperature, four hours. The procedure: For example, 20-deoxynarasin acid (435.1 mg) was dissolved in methanol (40 ml) and allowed to stand at room temperature for four hours. The solution was then evaporated to dryness under vacuum; the residue was redissolved in dioxane and lyophilized to give 417.8 mg of 20-deoxy-epi-17-narasin acid.

In a further series the test system is Eimeria tenella. Kind of series: chick feeding experiment, Eimeria tenella challenge. Type of series: in vivo, chickens. The settings on record: 100 ppm in diet; Na salt. From the text: A feeding experiment in young chickens confirms that the deoxynarasin antibiotics have anticoccidial activity in vivo.
^1 Two cages of four chickens each per treatment.
^2 Maximum possible score = 4.00.

The structures appear in SMILES notation. Where a name gives a salt, the structure may show the parent alone.

For the molecule `CCC(C(=O)O)C1OC(C(C)C(O)C(C)C(=O)C(CC)C2OC3(C=CCC4(CCC(C)(C5CCC(O)(CC)C(C)O5)O4)O3)C(C)CC2C)C(C)CC1C` (stereo not shown) [20-deoxynarasin], the solubility result is “soluble” in the series “solubility” (methanol, ethanol, dimethylformamide, dimethyl sulfoxide, ethyl acetate, chloroform, acetone and benzene); “only slightly soluble” in “solubility” (nonpolar organic solvents such as hexane); “insoluble” in the series “solubility” (water). Further, the stability in alcohols entry in the series “stability in alcohols” was “unstable in alcohols, converting to 20-deoxy-epi-17-narasin free acid”.
As for `CCC(C(=O)O)C1OC(C(C)C(O)C(C)C(=O)C(CC)C2OC3(C=CCC4(CCC(C)(C5CCC(O)(CC)C(C)O5)O4)O3)C(C)CC2C)C(C)CC1C` (stereo not shown) [20-deoxynarasin (Na salt), 20-deoxynarasin], in the series with Eimeria tenella, the “mortality (in words)” value is “prevented mortality”, the “number of lesions (in words)” value was “decreased the number of lesions” and the “weight gains (in words)” value is reported as “improved weight gains”.
